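Method: 48-hour compound exposure of cells in 96-well plates, five concentrations, linear interpolation of endpoints. The concentration for 50% growth inhibition is given as GI50. The concentration for full growth arrest is given as TGI.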
Columns and labels:
Experiment in all cases: DTP human tumour cell line panel, 48 h
KM12 colon = test system: KM12 colon
LOX IMVI melanoma = test system: LOX IMVI melanoma
ACHN renal = test system: ACHN renal
HOP-18 NSCLC = test system: HOP-18 NSCLC
K-562 leukemia = test system: K-562 leukemia
NCI-H522 lung = test system: NCI-H522 lung
RXF-631 renal = test system: RXF-631 renal

## O=C([CH-]C(=O)c1ccccc1)c1ccccc1.[C-]#[O+].[C-]#[O+].[Ir]
KM12 colon
  GI50: 66.1 µM
  TGI: > 100 µM
LOX IMVI melanoma
  GI50: 46.5 µM
  TGI: > 100 µM

## Cc1cc(N(CCC#N)S(=O)(=O)c2ccccc2)ccc1C=Nc1cccc(C(=O)O)c1
ACHN renal
  TGI: > 100 µM
HOP-18 NSCLC
  TGI: > 100 µM
K-562 leukemia
  TGI: > 100 µM
NCI-H522 lung
  TGI: > 100 µM
RXF-631 renal
  TGI: > 100 µM
